Reference: ChEMBL document CHEMBL2163216, “Design of fully synthetic, self-adjuvanting vaccine incorporating the tumor-associated carbohydrate Tn antigen and lipoamino acid-based Toll-like receptor 2 ligand” (J Med Chem, 2012)
Calls of active or inactive are those of the source. The rule behind the calls is not given here. Where a SMILES comes first, the peptide text is derived from it. [ ]: non-standard residue; d: D form. The star is where a group is joined. ξ: configuration not given here. αGalNAc = CC(=O)N[C@@H]1[C@@H](O)[C@@H](O)[C@@H](CO)O[C@@H]1*; ξGly(tetradecyl) = CCCCCCCCCCCCCCC(N)C(=O)O

Assays:
Mus musculus [1] = experiment: Immunostimulatory activity in BALB/c (H-2d) mouse assessed as increase in IgG level at 30 ug, sc per week for 5 weeks measured on day 9 after last immunization by ELISA relative to untreated-control; type: functional, organism-based
Mus musculus [2] = experiment: Immunostimulatory activity in BALB/c (H-2d) mouse assessed as increase in IgG level at 30 ug, sc per week for 5 weeks coadministered with complete freund's adjuvant measured on day 9 after last immunization by ELISA; type: functional, organism-based
[3] = target: Toll-like receptor 2 (Homo sapiens) (UniProt O60603); experiment: Activation of human TLR2 expressed in HEK293 cells at 100 to 300 nM after 4 hrs by luciferase reporter gene assay; type: cell-based
Toll-like receptor 2 (Homo sapiens), sequence (O60603 whole entry): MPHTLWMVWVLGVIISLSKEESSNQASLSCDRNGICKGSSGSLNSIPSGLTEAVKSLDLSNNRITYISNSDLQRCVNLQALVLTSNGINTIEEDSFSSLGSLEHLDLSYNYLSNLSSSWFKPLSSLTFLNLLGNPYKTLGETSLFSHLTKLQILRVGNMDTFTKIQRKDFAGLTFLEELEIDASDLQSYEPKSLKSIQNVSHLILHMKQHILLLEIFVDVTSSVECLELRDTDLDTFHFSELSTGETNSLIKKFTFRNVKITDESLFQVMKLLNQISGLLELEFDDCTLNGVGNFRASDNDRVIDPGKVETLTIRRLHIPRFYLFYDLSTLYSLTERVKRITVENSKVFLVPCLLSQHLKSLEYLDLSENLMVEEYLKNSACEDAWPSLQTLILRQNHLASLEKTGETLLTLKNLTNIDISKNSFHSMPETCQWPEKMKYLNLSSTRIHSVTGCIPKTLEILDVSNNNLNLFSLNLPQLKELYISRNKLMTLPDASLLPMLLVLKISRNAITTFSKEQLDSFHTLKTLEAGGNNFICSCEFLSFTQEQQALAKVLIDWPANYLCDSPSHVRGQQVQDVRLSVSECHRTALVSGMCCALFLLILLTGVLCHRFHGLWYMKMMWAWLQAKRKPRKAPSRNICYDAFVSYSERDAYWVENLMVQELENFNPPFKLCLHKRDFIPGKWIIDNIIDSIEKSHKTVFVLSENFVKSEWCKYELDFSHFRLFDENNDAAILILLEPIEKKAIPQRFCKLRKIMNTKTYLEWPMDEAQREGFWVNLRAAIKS

| SMILES | Activity (Mus musculus [1]) | Activity (Mus musculus [2]) | Activity [3] |
| --- | --- | --- | --- |
| CCCCCCCCCCCCCCC(NC(=O)C(CCCCCCCCCCCCCC)NC(=O)[C@H](CO)NC(=O)[C@H](CO)NC(=O)[C@H](CCCCN)NC(=O)[C@H](CO[C@H]1O[C@H](CO)[C@H](O)[C@H](O)[C@H]1NC(C)=O)NC(=O)[C@H](CO[C@H]1O[C@H](CO)[C@H](O)[C@H](O)[C@H]1NC(C)=O)NC(=O)[C@H](CO[C@H]1O[C@H](CO)[C@H](O)[C@H](O)[C@H]1NC(C)=O)NC(=O)[C@@H](NC(=O)[C@H](CC(=O)O)NC(=O)[C@H](CCCCN)NC(=O)[C@H](Cc1ccc(O)cc1)NC(=O)[C@@H](NC(=O)[C@@H](NC(=O)[C@H](CCCCN)NC(=O)[C@H](Cc1c[nH]c2ccccc12)NC(=O)[C@@H](NC(=O)[C@H](C)NC(=O)[C@H](Cc1ccccc1)NC(=O)[C@H](CC(C)C)NC(=O)[C@H](CCCCN)NC(C)=O)C(C)C)[C@@H](C)CC)[C@@H](C)O)[C@@H](C)O)C(N)=O (stereo partly specified) | Active | Active |  |
| CCCCCCCCCCCCCCC(NC(=O)C(CCCCCCCCCCCCCC)NC(=O)[C@H](CO)NC(=O)[C@H](CO)NC(=O)[C@H](CCCCN)NC(=O)[C@H](CO[C@H]1O[C@H](CO)[C@H](O)[C@H](O)[C@H]1NC(C)=O)NC(=O)[C@H](CO[C@H]1O[C@H](CO)[C@H](O)[C@H](O)[C@H]1NC(C)=O)NC(=O)[C@H](CO[C@H]1O[C@H](CO)[C@H](O)[C@H](O)[C@H]1NC(C)=O)NC(=O)[C@H](CCCCNC(=O)[C@H](CC(C)C)NC(=O)[C@H](CCCCN)NC(=O)[C@H](CCC(=O)O)NC(=O)[C@H](Cc1ccccc1)NC(=O)[C@H](CC(N)=O)NC(=O)[C@@H](NC(=O)[C@@H](NC(=O)[C@H](CO)NC(C)=O)[C@@H](C)CC)[C@@H](C)CC)NC(=O)[C@@H](NC(=O)[C@H](CC(=O)O)NC(=O)[C@H](CCCCN)NC(=O)[C@H](Cc1ccc(O)cc1)NC(=O)[C@@H](NC(=O)[C@@H](NC(=O)[C@H](CCCCN)NC(=O)[C@H](Cc1c[nH]c2ccccc12)NC(=O)[C@@H](NC(=O)[C@H](C)NC(=O)[C@H](Cc1ccccc1)NC(=O)[C@H](CC(C)C)NC(=O)[C@H](CCCCN)NC(C)=O)C(C)C)[C@@H](C)CC)[C@@H](C)O)[C@@H](C)O)C(N)=O (stereo partly specified) | inactive |  |  |
| CCCCCCCCCCCCCCC(NC(=O)C(CCCCCCCCCCCCCC)NC(=O)[C@H](CO)NC(=O)[C@H](CO)NC(=O)[C@H](CCCCN)NC(=O)[C@H](CO[C@H]1O[C@H](CO)[C@H](O)[C@H](O)[C@H]1NC(C)=O)NC(C)=O)C(N)=O (stereo partly specified) (Ac-S(αGalNAc)KSS[ξGly(tetradecyl)][ξGly(tetradecyl)]-NH2) |  |  | Active |
| CCCCCCCCCCCCCCC(NC(=O)C(CCCCCCCCCCCCCC)NC(=O)[C@H](CO)NC(=O)[C@H](CO)NC(=O)[C@H](CCCCN)NC(=O)[C@H](CO[C@H]1O[C@H](CO)[C@H](O)[C@H](O)[C@H]1NC(C)=O)NC(=O)[C@H](CO[C@H]1O[C@H](CO)[C@H](O)[C@H](O)[C@H]1NC(C)=O)NC(=O)[C@H](CO[C@H]1O[C@H](CO)[C@H](O)[C@H](O)[C@H]1NC(C)=O)NC(=O)[C@@H](NC(=O)[C@H](CC(=O)O)NC(=O)[C@H](CCCCN)NC(=O)[C@H](Cc1ccc(O)cc1)NC(=O)[C@@H](NC(=O)[C@@H](NC(=O)[C@H](CCCCN)NC(=O)[C@H](Cc1c[nH]c2ccccc12)NC(=O)[C@@H](NC(=O)[C@H](C)NC(=O)[C@H](Cc1ccccc1)NC(=O)[C@H](CC(C)C)NC(=O)[C@H](CCCCN)NC(=O)[C@H](CC(C)C)NC(=O)[C@H](CCCCN)NC(=O)[C@H](CCC(=O)O)NC(=O)[C@H](Cc1ccccc1)NC(=O)[C@H](CC(N)=O)NC(=O)[C@@H](NC(=O)[C@@H](NC(=O)[C@H](CO)NC(C)=O)[C@@H](C)CC)[C@@H](C)CC)C(C)C)[C@@H](C)CC)[C@@H](C)O)[C@@H](C)O)C(N)=O (stereo partly specified) | inactive | Active |  |
